Biological target: T1, CDK2 (Homo sapiens, UniProt P24941)
T1 construct: The expressed protein is approximately 34 kDa in size; made in house; host or cells: SF9 insect cells (recombinant baculovirus, pFASTBAC)
Assay: CDK2 in vitro kinase assay (cyclin A or E-dependent), 33P-ATP SPA
Assay type: biochemical
Details: recombinant cyclin-CDK2 complex (cyclin A or E, not specified); biotinylated Histone H1 peptide substrate; 1 hour at room temperature; read-out: CDK 2 IC50

In the case of `CCc1cnn2c(NCc3cncnc3)nc(N3CCCC[C@H]3CCO)nc12`, the IC50 is reported as 0.56 nM.

`CCc1cnn2c(NCc3ccn(CC)c(=O)c3)nc(N3CCCC[C@H]3CCO)nc12` was tested, and the IC50 was 0.52 nM.

Compound `Cn1cc(CNc2nc(N3CCCC[C@H]3CCO)nc3c(C4CC4)cnn23)ccc1=O` has an IC50 of 3.1 nM.

`CCc1cnn2c(Nc3ccc(S(C)(=O)=O)cc3)nc(N3CCCC[C@H]3CCO)nc12` showed an IC50 of 106 nM.

Compound `CCc1cnn2c(NCc3ccnnc3)nc(N3CCCC[C@H]3CCO)nc12` has an IC50 of 1.2 nM.

With `CCc1cnn2c(NCc3cccnc3)nc(N3CCCC[C@H]3CCO)nc12` the IC50 was 0.88 nM.

With `CCc1cnn2c(NCc3ccc(=O)n(C)c3)nc(N3CCCC[C@H]3CCO)nc12` the IC50 was 0.48 nM.

Source: patent US7354921B2, “Pyrazolotriazines as kinase inhibitors” (Schering Corporation, priority 2004, dated 2008)
